Where two headings read alike, the source gives them in different places.
Key:
mtOXPHOS transcripts = assay type: cell-based, mouse; settings: for mitoOX (composite Z-score): normalized score vs mock-treated (DMSO) wells
reactive oxygen species = assay type: cell-based, mouse; settings: for ROS (composite Z-score): normalized score vs mock-treated (DMSO) wells
nuOXPHOS transcripts = assay type: cell-based, mouse; settings: for nucOX (composite Z-score): normalized score vs mock-treated (DMSO) wells
[1] = tested on: cellular dehydrogenase activity; settings: for MTT (composite Z-score): normalized score vs mock-treated (DMSO) wells
OXPHOS gene expression = assay type: cell-based, mouse; settings: for GE-HTS (composite Z-score): normalized score vs mock-treated (DMSO) wells
cytochrome c = assay type: cell-based, mouse; settings: for cyt c (composite Z-score): normalized score vs mock-treated (DMSO) wells
C2C12 myotubes = settings: for Viability (composite Z-score): normalized score vs mock-treated (DMSO) wells
[2] = tested on: mitochondrial membrane potential; assay type: cell-based, mouse; settings: for ΔΨm (composite Z-score): normalized score vs mock-treated (DMSO) wells
[3] = composite Z-score vs DMSO wells, Conc 20 μM
[4] = composite Z-score vs DMSO, Conc 20 μM
[5] = composite Z-score vs mock-treated (DMSO) wells, Conc 20 μM
[6] = 20 μM, composite Z-score vs DMSO
[7] = 12.18 μM, composite Z-score vs DMSO

Q: What does the source list for `CCCCNc1ccc(C(=O)OCCN(C)C)cc1` [tetracaine]?
A: mitoOX (mtOXPHOS transcripts; [3]): −0.034; ROS (reactive oxygen species; [3]): 0.320; nucOX (nuOXPHOS transcripts; [3]): −0.376; MTT [1, 3]: −0.048; GE-HTS (OXPHOS gene expression; [3]): −0.280; cyt c (cytochrome c): −0.536; cyt c (cytochrome c; [3]): 0.383; Viability (C2C12 myotubes; [3]): −0.539; ΔΨm [2, 3]: −0.492

Q: `N#Cc1c(Cl)c(Cl)c(Cl)c(C#N)c1Cl` [tetrachloroisophthalonitrile] was tested. Which “mitoOX (composite Z-score)” value (mtOXPHOS transcripts; Conc 20 μM) did it give?
A: −1.780

Q: What about the “ROS (composite Z-score)” value (reactive oxygen species; Conc 20 μM) of the same compound?
A: −3.975

Q: And the “nucOX (composite Z-score)” value (nuOXPHOS transcripts; Conc 20 μM)?
A: −3.990

Q: What about the “MTT (composite Z-score)” value ([1]; Conc 20 μM) of the same compound?
A: −6.675

Q: What about the “GE-HTS (composite Z-score)” value (OXPHOS gene expression; Conc 20 μM) of the same compound?
A: −3.510

Q: And the “cyt c (composite Z-score)” value (cytochrome c; Conc 20 μM)?
A: −5.292

Q: What about the “Viability (composite Z-score)” value (C2C12 myotubes; Conc 20 μM) of the same compound?
A: −5.297

Q: What about the “ΔΨm (composite Z-score)” value ([2]; Conc 20 μM) of the same compound?
A: −4.269

Q: For `CC(=O)OCC(=O)[C@@]1(O)CCC2C3CC[C@@H]4C[C@H](OC(C)=O)CC[C@]4(C)C3C(=O)C[C@@]21C` (some centres unmarked) [tetrahydrocortisone-3,21-diacetate], which mitoOX (mtOXPHOS transcripts; [4]) is on record?
A: 0.269

Q: And the ROS (reactive oxygen species; [4])?
A: 0.456

Q: What about the nucOX (nuOXPHOS transcripts; [4]) of the same compound?
A: −0.558

Q: What about the MTT [1, 4] of the same compound?
A: −0.664

Q: What about the GE-HTS (OXPHOS gene expression; [4]) of the same compound?
A: −0.320

Q: What about the cyt c (cytochrome c; [4]) of the same compound?
A: −0.397

Q: What about the Viability (C2C12 myotubes; [4]) of the same compound?
A: −0.030

Q: And the ΔΨm [2, 4]?
A: 0.074

Q: Which mitoOX (mtOXPHOS transcripts; [5]) does the source give for `CC(C)=CCCC1(C)C=Cc2c(O)c3c(c(CC=C(C)C)c2O1)OC12C(CC4CC1C(C)(C)OC2(C/C=C(/C)C(=O)O)C4O)C3=O` (centres unmarked) [tetrahydrogambogic acid] here?
A: −0.490

Q: And the ROS (reactive oxygen species; [5])?
A: 0.460

Q: And the nucOX (nuOXPHOS transcripts; [5])?
A: −0.409

Q: And the MTT [1, 5]?
A: −1.090

Q: What about the GE-HTS (OXPHOS gene expression; [5]) of the same compound?
A: −0.478

Q: What about the cyt c (cytochrome c; [5]) of the same compound?
A: −0.932

Q: And the Viability (C2C12 myotubes; [5])?
A: 1.434

Q: What about the ΔΨm [2, 5] of the same compound?
A: −1.438

Q: For `O=C1C(O)=C(O)C(=O)C(O)=C1O` [tetroquinone], which mitoOX (mtOXPHOS transcripts; [3]) is on record?
A: 0.112

Q: And the ROS (reactive oxygen species; [3])?
A: 0.638

Q: And the nucOX (nuOXPHOS transcripts; [3])?
A: 0.028

Q: And the MTT [1, 3]?
A: −0.574

Q: And the GE-HTS (OXPHOS gene expression; [3])?
A: 0.067

Q: What about the cyt c (cytochrome c; [3]) of the same compound?
A: 0.386

Q: What about the Viability (C2C12 myotubes; [3]) of the same compound?
A: 0.088

Q: And the ΔΨm [2, 3]?
A: −0.424

Q: How did the “mitoOX (composite Z-score)” value (mtOXPHOS transcripts; Conc 20 μM) turn out when `O=c1c(O)cccc2c([C@H]3Oc4cc(O)cc(O)c4C[C@H]3O)cc(O)c(O)c12` [theaflavanin] was run?
A: −0.333

Q: And the “ROS (composite Z-score)” value (reactive oxygen species; Conc 20 μM)?
A: −0.040

Q: What about the “nucOX (composite Z-score)” value (nuOXPHOS transcripts; Conc 20 μM) of the same compound?
A: −0.764

Q: What about the “MTT (composite Z-score)” value ([1]; Conc 20 μM) of the same compound?
A: −0.665

Q: What about the “GE-HTS (composite Z-score)” value (OXPHOS gene expression; Conc 20 μM) of the same compound?
A: −0.695

Q: What about the “cyt c (composite Z-score)” value (cytochrome c; Conc 20 μM) of the same compound?
A: −0.166

Q: What about the “Viability (composite Z-score)” value (C2C12 myotubes; Conc 20 μM) of the same compound?
A: −1.349

Q: What about the “ΔΨm (composite Z-score)” value ([2]; Conc 20 μM) of the same compound?
A: −2.074

Q: How did the mitoOX (mtOXPHOS transcripts; [4]) turn out when `CCNC(=O)CC[C@H](N)C(=O)O` [theanine] was run?
A: −0.778

Q: And the ROS (reactive oxygen species; [4])?
A: 0.615

Q: And the nucOX (nuOXPHOS transcripts; [4])?
A: −1.209

Q: And the MTT [1, 4]?
A: −0.851

Q: And the GE-HTS (OXPHOS gene expression; [4])?
A: −1.153

Q: What about the cyt c (cytochrome c; [4]) of the same compound?
A: 0.244

Q: What about the Viability (C2C12 myotubes; [4]) of the same compound?
A: −0.613

Q: What about the ΔΨm [2, 4] of the same compound?
A: −0.557

Q: For `Cn1cnc2c1c(=O)[nH]c(=O)n2C` [theobromine], which mitoOX (mtOXPHOS transcripts; [3]) is on record?
A: −0.609

Q: And the ROS (reactive oxygen species; [3])?
A: 0.179

Q: What about the nucOX (nuOXPHOS transcripts; [3]) of the same compound?
A: −0.449

Q: And the MTT [1, 3]?
A: −0.982

Q: And the GE-HTS (OXPHOS gene expression; [3])?
A: −0.561

Q: What about the cyt c (cytochrome c) of the same compound?
A: 0.007

Q: What about the cyt c (cytochrome c; [3]) of the same compound?
A: −0.026

Q: What about the Viability (C2C12 myotubes; [3]) of the same compound?
A: −0.264

Q: And the ΔΨm [2, 3]?
A: −0.847

Q: With `CN(C)C(=S)SSC(=S)N(C)C` [thiram] as the compound, how does the mitoOX (mtOXPHOS transcripts; [6]) read?
A: −1.220

Q: And the ROS (reactive oxygen species; [6])?
A: −3.915

Q: And the nucOX (nuOXPHOS transcripts; [6])?
A: −2.770

Q: And the MTT [1, 6]?
A: −6.222

Q: And the GE-HTS (OXPHOS gene expression; [6])?
A: −2.420

Q: And the cyt c (cytochrome c; [6])?
A: −4.853

Q: What about the Viability (C2C12 myotubes; [6]) of the same compound?
A: −5.812

Q: And the ΔΨm [2, 6]?
A: −4.011

Q: What does the source list for `CCN(CC)CCNC(=O)c1cc(S(C)(=O)=O)ccc1OC` [tiapride]?
A: mitoOX (mtOXPHOS transcripts; [7]): 0.086; mitoOX (mtOXPHOS transcripts; [6]): −0.355; ROS (reactive oxygen species; [7]): 0.653; ROS (reactive oxygen species; [6]): −0.466; nucOX (nuOXPHOS transcripts; [7]): 0.416; nucOX (nuOXPHOS transcripts; [6]): −0.220; MTT [1, 7]: −1.563; MTT [1, 6]: −0.646; GE-HTS (OXPHOS gene expression; [7]): 0.341; GE-HTS (OXPHOS gene expression; [6]): −0.283; cyt c (cytochrome c; [7]): 0.917; cyt c (cytochrome c; [6]): −0.107; Viability (C2C12 myotubes; [7]): −1.454; Viability (C2C12 myotubes; [6]): 1.174; ΔΨm [2, 7]: −0.800; ΔΨm [2, 6]: 0.171

Q: How did the mitoOX (mtOXPHOS transcripts; [4]) turn out when `C[C@H]1CC[C@]2(NC1)O[C@H]1C[C@H]3[C@@H]4CC[C@H]5C[C@@H](O)CC[C@]5(C)[C@H]4CC[C@]3(C)[C@H]1[C@@H]2C` [tomatidine] was run?
A: −0.857

Q: What about the ROS (reactive oxygen species; [4]) of the same compound?
A: 1.323

Q: What about the nucOX (nuOXPHOS transcripts; [4]) of the same compound?
A: −1.473

Q: What about the MTT [1, 4] of the same compound?
A: −1.376

Q: And the GE-HTS (OXPHOS gene expression; [4])?
A: −1.375

Q: And the cyt c (cytochrome c; [4])?
A: 0.913

Q: What about the cyt c (cytochrome c; composite Z-score vs mock-treated (DMSO) wells, concentration of each compound in μM) of the same compound?
A: 1.135

Q: And the Viability (C2C12 myotubes; [4])?
A: 0.490

Q: And the ΔΨm [2, 4]?
A: −0.425

Q: How did the mitoOX (mtOXPHOS transcripts; [4]) turn out when `C[C@H]1CC[C@]2(NC1)O[C@H]1C[C@H]3[C@@H]4CC[C@H]5C[C@@H](O[C@@H]6O[C@H](CO)[C@H](O[C@@H]7O[C@H](CO)[C@@H](O)[C@H](O[C@@H]8OC[C@@H](O)[C@H](O)[C@H]8O)[C@H]7O[C@@H]7O[C@H](CO)[C@@H](O)[C@H](O)[C@H]7O)[C@H](O)[C@H]6O)CC[C@]5(C)[C@H]4CC[C@]3(C)[C@H]1[C@@H]2C` [tomatine] was run?
A: −1.725

Q: And the ROS (reactive oxygen species; [4])?
A: −2.084

Q: And the nucOX (nuOXPHOS transcripts; [4])?
A: −2.158

Q: What about the MTT [1, 4] of the same compound?
A: −4.122

Q: And the GE-HTS (OXPHOS gene expression; [4])?
A: −2.151

Q: And the cyt c (cytochrome c; [4])?
A: −3.979

Q: And the Viability (C2C12 myotubes; [4])?
A: −4.793

Q: What about the ΔΨm [2, 4] of the same compound?
A: −2.423

From patent US20090143279A1 (priority 2007, published 2009)
